Here are results for two compounds from US20230115176A1 (Ra Pharmaceuticals, Inc., priority 2019, published 2023).

Data set [1] deals with CD59-deficient RBCs from patients with paroxysmal nocturnal hemoglobinuria (PNH). The experiment in a line: Hemolysis inhibition with PNH patient cells, flow cytometry for CD59 and plate assay (Example 6). In kind it is cell-based, human. The following applies: FIG. 2. In general terms: Flow cytometry measures light scatter and fluorescence of single cells or particles in a stream.
Protocol: Flow cytometry studies were carried out to assess the ability of compounds to inhibit hemolysis of CD59-deficient RBCs from patients with paroxysmal nocturnal hemoglobinuria (PNH). […] To induce hemolysis, donor-matched serum was acidified to pH 6.4 with HCl. Compounds, serum, and RBCs, 2.5% volume per volume (v/v), were incubated for 18 hours at 37° C. After incubation, cells were washed and re-suspended in 1 ml fluorescence-associated cell sorting (FACS) buffer (0.1% BSA IgG-free in PBS, 0.1% Sodium Azide). Then, anti-CD59 antibody conjugated with phycoerythrin was added at a final concentration of 0.25 μg/ml to 100 μl of cell suspension and incubated at 4° C. for 30 minutes. Cells were then washed twice with cold FACS buffer, re-suspended in FACS buffer and analyzed with a BD Accuri C6 Flow Cytometer (BD Biosciences, San Jose, Calif.) for CD59 levels. The level of CD59-positive cells was monitored as a measure of complement-mediated hemolysis of PNH type III cells. A negative control using non-acidified serum was used to establish a baseline of CD59 expression under non-hemolytic conditions (FIG. 1A).

The next data set deals with purified human C5 (Homo sapiens, UniProt P01031). The experiment in a line: Red blood cell hemolysis assay, optical, absorbance 412 nm (Example 3, Table 6). The following applies: antibody-sensitized sheep erythrocytes, 1.5% human C5 depleted sera, 0.5 nM human C5; average where replicates. In kind it is cell-based.
In data set [2] the target is T1, Human C5 (Homo sapiens, UniProt P01031).
T1 construct: purchased Complement Technology
The experiment in a line: Surface plasmon resonance (SPR), compounds on immobilized human C5 (Example 2, Table 5). In kind it is binding. Particulars: lowest value where a range of compound concentrations were analyzed. A general note: SPR reads the build-up and loss of mass on a sensor chip optically.
Protocol: Surface plasmon resonance (SPR) technology was used to evaluate affinity, specificity, and kinetics of interactions between compounds and complement protein C5 in real time without the need for labeling.
SensiQ FE SPR system (SensiQ Technologies, Oklahoma City, Okla.) was used to provide sensitive and accurate detection of binding of small molecules to the very large C5 protein (MW=195,000 Da). The chip was prepared by preconditioning the sensor according to the protocol of the SensiQ FE using 10 mM HCl, 50 mM NAOH and 0.1% SDS. The sensor chip was activated by using a mixture of fresh EDAC (1-ethyl-3-(-3-dimethylaminopropyl) carbodiimide) (Sigma Co., St. Louis, Mo.) and NHS (N-hydroxy succinimide) (Sigma Co., St. Louis, Mo.). Human C5 was surface immobilized to a Pioneer Biosensor chip via random amine coupling (>12,000 RU) which makes use of the N-terminus and ε-amino groups of lysine residues of the protein ligand. Immobilization was done by injecting 30-40 μg/ml C5 in 10 mM NaAc pH 4.5 onto designated channels at a rate of 10 μL/minute for 12 minutes, targeting RL>12000 RU for small molecules.
Compounds were diluted in DMSO in a format of 100-fold final concentration and 3-fold serial dilution (5 or 6 dilutions). The 100-fold compounds were transferred to one-fold DMSO-free assay buffer in the 96-well test plate. The compound solution was injected at a rate of 60 μL/minute for 30-60 seconds, followed by 60-90 seconds dissociation time, buffer flushing and/or priming. Blank solution (1% DMSO assay buffer) was run for every 6 injections of compounds. Double reference by subtracting both blank channel and reference channel was applied for data processing. Titration of C5 binding compounds to the C5-immobilized biosensor chip surface led to interactions between C5 and potential binders, and the resulting changes of surface refractive index were sensitively measured by the system.
SPR data were analyzed with the managing software provided by SensiQ and equilibrium dissociation constant (KD) values were determined for each compound. Where a range of compound concentrations were analyzed, the lowest value obtained is presented.

In data set [3] the target is T1, Human C5. The experiment in a line: Hemolysis assay, luminescent, classical complement pathway (Example 4, Table 7). Type of data set: cell-based. Particulars: sheep EA cells, 1.5% C5-depleted human serum, 0.5 nM human C5, luminescence readout. From the text: Numbers in parenthesis following the compound number indicate alternate enantiomers (as distinguished by retention time during chromatographical separation).

Data set [4] can be described thus: Drug-Metabolism-and-Pharmacokinetics (DMPK), single IV and oral dose in rats (Example 5). Particulars: rat, in vivo; fasted male Sprague Dawley rats, 1 mg/kg IV and 10 mg/kg PO, 5% DMSO: 20% HP-Beta-CD. Here is the method: Single intravenous (IV) and oral dose (P0, per oral) administration of C5 inhibitors were carried out in rats. Rats were then analyzed for Drug-Metabolism-and-Pharmacokinetic (DMPK) properties, used to determine the pharmacokinetics and oral bioavailability of the C5 inhibitors.
SM0011 was formulated as a clear solution at 1 mg/mL in 5% DMSO: 20% HP-Beta-CD. Fasted male Sprague Dawley rats were dosed with the solution at 1 MPK (mg/kg) IV and 10 MPK (mg/kg) PO. Analysis of the DMPK properties of the compound were used to determine the bioavailability.

pIC50, pKd: −log10 of the molar value.

T1 sequence (P01031 19-1676): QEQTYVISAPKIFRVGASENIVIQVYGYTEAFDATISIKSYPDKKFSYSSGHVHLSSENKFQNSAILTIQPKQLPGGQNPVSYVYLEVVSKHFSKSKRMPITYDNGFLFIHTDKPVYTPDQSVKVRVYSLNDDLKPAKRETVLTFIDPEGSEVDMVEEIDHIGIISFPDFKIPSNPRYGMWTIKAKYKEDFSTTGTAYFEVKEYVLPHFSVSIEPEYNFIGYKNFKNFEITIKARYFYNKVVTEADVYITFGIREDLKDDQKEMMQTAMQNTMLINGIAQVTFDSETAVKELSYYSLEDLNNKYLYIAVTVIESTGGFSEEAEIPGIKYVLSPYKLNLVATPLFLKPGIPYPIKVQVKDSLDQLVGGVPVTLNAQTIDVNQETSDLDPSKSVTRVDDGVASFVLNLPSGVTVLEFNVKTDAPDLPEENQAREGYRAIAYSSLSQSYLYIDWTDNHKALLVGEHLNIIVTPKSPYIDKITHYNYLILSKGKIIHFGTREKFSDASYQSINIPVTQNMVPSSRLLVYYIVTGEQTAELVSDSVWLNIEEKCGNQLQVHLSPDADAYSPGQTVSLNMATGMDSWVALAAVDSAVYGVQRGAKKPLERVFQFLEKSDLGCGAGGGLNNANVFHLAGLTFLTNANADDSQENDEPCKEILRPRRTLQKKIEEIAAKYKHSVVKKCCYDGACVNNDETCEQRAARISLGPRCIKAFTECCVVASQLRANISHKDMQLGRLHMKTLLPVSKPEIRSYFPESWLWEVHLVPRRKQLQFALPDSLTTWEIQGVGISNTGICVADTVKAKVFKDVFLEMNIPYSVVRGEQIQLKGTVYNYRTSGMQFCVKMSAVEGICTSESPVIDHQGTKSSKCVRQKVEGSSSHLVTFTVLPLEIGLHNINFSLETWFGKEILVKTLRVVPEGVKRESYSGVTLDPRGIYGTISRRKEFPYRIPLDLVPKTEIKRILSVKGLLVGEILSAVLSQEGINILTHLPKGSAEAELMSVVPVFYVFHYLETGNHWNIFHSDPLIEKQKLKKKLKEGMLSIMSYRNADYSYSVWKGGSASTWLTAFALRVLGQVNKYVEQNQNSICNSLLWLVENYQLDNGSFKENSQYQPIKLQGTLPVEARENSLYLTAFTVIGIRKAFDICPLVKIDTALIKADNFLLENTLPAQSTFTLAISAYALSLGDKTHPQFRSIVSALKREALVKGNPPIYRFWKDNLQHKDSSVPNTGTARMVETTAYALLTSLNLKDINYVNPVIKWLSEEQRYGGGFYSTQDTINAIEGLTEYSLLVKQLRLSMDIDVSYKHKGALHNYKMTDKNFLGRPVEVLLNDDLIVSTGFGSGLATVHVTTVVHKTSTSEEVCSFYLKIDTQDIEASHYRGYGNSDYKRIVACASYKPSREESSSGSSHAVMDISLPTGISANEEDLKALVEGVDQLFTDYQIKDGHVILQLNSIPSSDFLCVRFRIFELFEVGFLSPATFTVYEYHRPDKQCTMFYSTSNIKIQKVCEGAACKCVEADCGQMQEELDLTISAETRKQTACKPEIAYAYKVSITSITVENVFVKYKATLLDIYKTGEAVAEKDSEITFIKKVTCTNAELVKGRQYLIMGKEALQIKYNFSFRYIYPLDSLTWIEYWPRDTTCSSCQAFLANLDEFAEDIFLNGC
purified human C5, sequence (P01031 19-1676): as above

As for `COc1ccc(NC(=O)NC(CO)c2ccccc2O)cc1OCCCC(C)C` (stereo not shown) [SM0001, 1-(2-hydroxy-1-(2-hydroxyphenyl)ethyl)-3-(4-methoxy-3-((4-methylpentyl)oxy)phenyl)urea], the “inhibition of PNH patient hemolysis with increasing concentrations” value in data set [1] was “dose-dependent manner”. Besides, the pIC50 (as a rule, the negative decadic logarithm of the IC50, by convention in mol/L) at purified human C5 is 7.68. Moreover, at Human C5 [2], the pKd (commonly the Kd on a negative log10 scale, so that one unit is a factor of ten) is 7.31.

In the case of `COc1ccc(NC(=O)N[C@@H](CO)c2ccccc2)cc1OCCCC(C)C` [SM0011], the pIC50 was 6.57 on purified human C5 and 7.22 at Human C5 [3]. In data set [4], the bioavailability (in general, the share of a dose that reaches the circulation, judged against a reference dose that is usually intravenous) is roughly 30%. The compound also showed a pKd at Human C5 [2] of 6.80.
